Measurements from PMC6368574, “Probing the Inhibition of Microtubule Affinity Regulating Kinase 4 by N-Substituted Acridones” (Scientific Reports, 2019).

How the values were obtained:
HEK293 cells = assay: MTT cell viability assay, HEK293; assay type: cell-based; conditions: Homo sapiens, Table S2
Protocol: Initially, all synthesized acridone derivatives were evaluated for their cytotoxicity potential on MCF-7, HepG2 and HEK293 cell lines by MTT assay. These synthesized acridone derivatives were screened in the concentration range of 0–200 µM, for 24 and 48 h. […] It was also interesting that in the studied […] concentration range these compounds don’t show considerable cytotoxicity towards HEK293 cell lines. […] Thus, compounds 5, 7b, 7d, 7f and 7h were taken for further cell based studies such as apoptosis and reactive oxygen species (ROS) production.
To study the effect of synthesized acridone derivatives on cell viability and proliferation, a standard MTT method was carried out. Cells were plated (8000–9000/well) in a 96-well plate and incubated overnight. On the next day, cells were treated with increasing concentrations (0.1–80 μM) of synthesized acridone derivatives in a final volume of 200 µl for 48 h at 37 °C in a humidified chamber. At the end of treatment time point, 20 µl of MTT solution (from 5 mg/ml stock solution in phosphate buffer saline, pH 7.4) was added to each well and incubated further for 4–5 h at 37 °C in the CO2 incubator. After stipulated time the supernatant was aspirated and the colored formazan crystal produced as a result of MTT reduction was dissolved in 100 µl of DMSO. The absorbance (A) of colored product was then measured at 570 nm on a multiplate ELISA reader (BioRad). The percentage of viable cells was calculated and used to estimate the IC50 (50% inhibitory concentration) values for each acridone derivative. For cell proliferation studies paclitaxel has been taken as positive control.

MCF-7 cells = assay: Annexin-V apoptosis assay by flow cytometry; assay type: cell-based, human; conditions: IC50 concentration, 24 h, annexin-V staining
Protocol: Evasion of apoptosis is a striking hallmark of cancerous cells, it is an essential process that regulates abnormal growth of cells, but compromised signaling helps the cancerous cells to escape apoptosis. MARK4 overexpression also supports the growth and evasion of cancerous cells. Thus, the probability of apoptosis induction by inhibiting MARK4 was studied. The MCF-7 cells were serum starved and treated with IC50 concentration of each acridone derivative for 24 h and subsequently annexin-V staining was used to assess the apoptotic potential of these compounds.
Figure 6 MARK4 inhibition by selected acridone derivatives induces apoptosis, elicited oxidative stress by inducing ROS production in MCF-7 cells. MCF-7 cells were treated with IC50 concentrations of each compound for 24 h and processed for apoptosis analysis using Annexin V-7AAD apoptosis kit by flow cytometry. (A) Quadrants showing the anti-FITC-Annexin-V stained cells after the treatment of each compound as indicated. (B) Bar graphs represents the percentage of apoptotic MCF-7 cells attained with Annexin-V for duplicate measurements ± SD. **p < 0.001, as compared to control (untreated cells). (For anticancer activities paclitaxel has been taken as positive control). (C) Histogram showing the fluorescence emission intensity of DCF as measured by flow cytometry, MCF-7 cells were treated with IC50 concentrations of each compound for 5–6 h and processed for ROS measurements using DCFDA staining and were quantified by flow cytometry. (D) Representative images of MCF-7 cells stained with DCFDA captured on fluorescence microscope (20 X original magnification) for the assessment of ROS after the treatment of respective compound and intensity of green color represents the levels of ROS.
Annexin-V staining was used to analyse the apoptotic potential of synthesized acridone derivatives as described previously[47],[48]. Briefly, MCF-7 cells were dosed with IC50 concentration of selected acridone derivative for 24 h at 37 °C. The control cells were treated with media only. After 24 h treatment, nearly 2.0–2.5 × 10^6 cells were trypsinized and collected by centrifuging the cell suspension at 1800 rpm for 4 min. Collected cells were washed two times with 5 ml of PBS. Finally, cells were stained with FITC labeled Annexin-V antibodies using FITC-Annexin-V kit according to the manufacturer’s guidelines (BD-Biosciences, USA). Approximately, 10,000 events were analyzed for each sample through flow cytometry on BD LSR II Flow Cytometry Analyzer and FlowJo.

SMILES	IC50 (HEK293 cells)	apoptosis induced in MCF-7 cells (MCF-7 cells)
COC(=O)Cn1c2ccccc2c(=O)c2cc(C)ccc21 [Compound 5, Methyl 2-(2-methyl-9-oxoacridin-10(9H)-yl)acetate]	> 200 µM	17.91%
Cc1ccc(NC(=O)Cn2c3ccccc3c(=O)c3cc(C)ccc32)cc1 [Compound 7f, 2-(2-Methyl-9-oxoacridin-10(9H)-yl)-N-(p-tolyl)acetamide]	> 200 µM	41.35%
Cc1ccc2c(c1)c(=O)c1ccccc1n2CC(=O)NCc1ccccc1 [Compound 7b, N-benzyl-2-(2-methyl-9-oxoacridin-10(9H)-yl)acetamide]	> 200 µM	69.23%
COc1ccccc1NC(=O)Cn1c2ccccc2c(=O)c2cc(C)ccc21 [Compound 7h, N-(2-methoxyphenyl)-2-(2-methyl-9-oxoacridin-10(9H)-yl)acetamide]	> 200 µM	21.53%
COc1ccc(CNC(=O)Cn2c3ccccc3c(=O)c3cc(C)ccc32)cc1 [Compound 7d, N-(4-methoxybenzyl)-2-(2-methyl-9-oxoacridin-10(9H)-yl)acetamide]	> 200 µM	43.10%
